From patent US7405205B2, “Antitumor antisense sequences directed against R1 and R2 components of ribonucleotide reductase” (Lorus Therapeutics Inc., priority 1996, dated 2008)
Strand notation (5' to 3'): a small letter for the sugar, then the base; units joined by * are phosphorothioate-linked, units joined directly phosphodiester-linked; [ ] holds rarer units or linkages, { } end groups; capitals alone tell only the bases. d = 2'-deoxy (DNA)

tested on: T24 bladder cell carcinoma; assay: Relative colony forming efficiency after antisense treatment (Table 13); format: cell-based, human; details: 0.2 μM antisense oligodeoxyribonucleotide phosphorothioate; T24 cells; averages of 2-8 determinations

| Sequence | Reduced relative colony forming efficiency, expressed as % inhibition, T24 [%] |
| --- | --- |
| GCAAAGAAAGCCAGAACATG (dG*dC*dA*dA*dA*dG*dA*dA*dA*dG*dC*dC*dA*dG*dA*dA*dC*dA*dT*dG; antisense) [AS-II-579-20] | 76.68 |
| GCAAAGGCTACAACACGTTC (antisense; DNA, all phosphorothioate, methylation of C not given here) [AS-II-861-20] | 73.5 |
| GCCACAGGATAAAAACACAA (antisense; DNA, all phosphorothioate, methylation of C not given here) [AS-II-2009-20] | 61.84 |
| GGGCACATCTTCAGTTCATT (DNA, all phosphorothioate, methylation of C not given here) [AS-II-1364-20] | 66.59 |
| TGCCTCCGACCCTTCCCATT (antisense dT*dG*dC*dC*dT*dC*dC*dG*dA*dC*dC*dC*dT*dT*dC*dC*dC*dA*dT*dT) [AS-II-14-20] | 77.59 |
| TTAGTGGTCAGGAGAATGTA (antisense; DNA, all phosphorothioate, methylation of C not given here) [AS-II-1819-20] | 53.74 |

tested on: HCT116 colon cell carcinoma; assay: as above; format: cell-based, human; details: 0.2 μM antisense oligodeoxyribonucleotide phosphorothioate; HCT116 cells; averages of 2-8 determinations

| Sequence | Reduced relative colony forming efficiency, expressed as % inhibition, HCT116 [%] |
| --- | --- |
| GCAAAGAAAGCCAGAACATG (dG*dC*dA*dA*dA*dG*dA*dA*dA*dG*dC*dC*dA*dG*dA*dA*dC*dA*dT*dG; antisense) [AS-II-579-20] | 69.08 |
| GCAAAGGCTACAACACGTTC (antisense; DNA, all phosphorothioate, methylation of C not given here) [AS-II-861-20] | 74.2 |
| GCACATCTTCAGTTCATTTA (DNA, all phosphorothioate, methylation of C not given here) [AS-II-1362-20] | 78.47 |
| GCCACAGGATAAAAACACAA (antisense; DNA, all phosphorothioate, methylation of C not given here) [AS-II-2009-20] | 69.92 |
| GGGCACATCTTCAGTTCATT (DNA, all phosphorothioate, methylation of C not given here) [AS-II-1364-20] | 77.29 |

tested on: A549 lung cell carcinoma; assay: as above; format: cell-based, human; details: 0.2 μM antisense oligodeoxyribonucleotide phosphorothioate; A549 cells; averages of 2-8 determinations

| Sequence | Reduced relative colony forming efficiency, expressed as % inhibition, A549 [%] |
| --- | --- |
| GCAAAGAAAGCCAGAACATG (dG*dC*dA*dA*dA*dG*dA*dA*dA*dG*dC*dC*dA*dG*dA*dA*dC*dA*dT*dG; antisense) [AS-II-579-20] | 95.49 |
| GCAAAGGCTACAACACGTTC (antisense; DNA, all phosphorothioate, methylation of C not given here) [AS-II-861-20] | 95.78 |
| GCACATCTTCAGTTCATTTA (DNA, all phosphorothioate, methylation of C not given here) [AS-II-1362-20] | 83.9 |
| GCCACAGGATAAAAACACAA (antisense; DNA, all phosphorothioate, methylation of C not given here) [AS-II-2009-20] | 93.32 |
| GGGCACATCTTCAGTTCATT (DNA, all phosphorothioate, methylation of C not given here) [AS-II-1364-20] | 95.59 |

tested on: MDA-MB-231 breast cell adenocarcinoma; assay: Relative colony forming efficiency after antisense treatment (Table 13, FIG. 11, FIG. 12); format: cell-based, human; details: 0.2 μM antisense oligodeoxyribonucleotide phosphorothioate; MDA-MB-231 cells; averages of 2-8 determinations
Method: Colony forming efficiency was determined as previously reported [Huang and Wright, 1994]. The cells were cultured for 24 hours at 37° C. in growth medium with 10% fetal bovine serum. The cells were washed in 5 ml phosphate buffered saline, pH 7.2, once prior to lipofectin+/−oligonucleotide treatment.
The oligonucleotides being tested were added to cell cultures in the presence of 2.5 μg of DOTMA/DOPE (Lipofectin; Life Technologies, Inc.) for four hours. The oligonucleotide was tested at 0.2 μM unless otherwise indicated. Controls were the cultures treated with lipofectin but without the oligonucleotide. After 4 hours the medium containing the oligonucleotide was removed and washed with 5 ml of growth medium. The cells were then cultured in growth medium containing 10% fetal bovine serum for seven to ten days. Surviving cells were visualized by methylene blue staining, and colonies were scored. In some experiments cell aliquotes were removed from the culture and viability was determined using the trypan blue exclusion test [Phillips, 1973]. Results were analyzed as percent of surviving cells compared to control cells.
To test the antisense effects of many of these sequences as phosphorthioate deoxyribonucleotides, they were examined in relative colony forming experiments performed with a series of human tumor cell lines. Many of these antisense constructs, as predicted, are potent inhibitors of human tumor cell proliferation. For results obtained with cancer cells derived from the bladder, breast, lung, colon, pancreas, prostate, liver and cervix, see Table 13. In addition, in vivo studies with AS-II-626-20 were undertaken in C3H/HeN mice as reported in Table 14 and show a significant reduction in metastasis in the antisense treated mice.
Colony forming ability of MDA-MB-231 human breast cancer cells treated with 28 different antisense oligonucleotides was estimated as previously described (Choy et al., 1988). Aliquots of cell suspension were seeded into 60 mm Petri dishes and incubated at 37° C. overnight in α-MEM medium supplemented with 10% fetal bovine serum. Cells were washed in 5 ml of phosphate buffered saline, pH 7.2, prior to 0.2 μM antisense/lipofectin treatments for 4 hours. The media containing the antisense oligonucleotides were removed and cells were washed once and cultured in growth medium for 7 to 10 days. Colonies were stained with methylene blue and scored as described (Choy et al., 1988; Huang and Wright 1994). Percent inhibition was calculated by comparison with the number of colonies present in cultures grown in the absence of antisense oligonucleotides. All experiments were performed in quadruplicate. FIG. 11 is a graph of the percentage inhibition of colony formation by treatment with the various antisense oligonucleotides.
Colony forming ability of various human tumor cell lines was estimated by determining relative colony forming efficiencies (Choy et al., 1988). Cells from various cell lines were washed in 5 ml of phosphate buffered saline, pH 7.2. The cells were treated with 0.2 μM AS-I-618-20 antisense oligonucleotide/lipofectin for 4 hours. The medium containing the antisense oligonucleotide was then removed and the cells were gently washed with 5 ml of growth medium. The cells were cultured in growth medium containing 10% fetal bovine serum for seven to ten days. […] The following human tumor cell lines were evaluated: HepG2 (liver), SK-OV-3 (ovary), U87 (brain), A2058 (melanoma), H460 (lung), MDA-MB-231 (breast) and AsPC-1 (pancreas).

| Sequence | Reduced relative colony forming efficiency, expressed as % inhibition, MDA-MB-231 [%] |
| --- | --- |
| GCAAAGAAAGCCAGAACATG (dG*dC*dA*dA*dA*dG*dA*dA*dA*dG*dC*dC*dA*dG*dA*dA*dC*dA*dT*dG; antisense) [AS-II-579-20] | 66.89 |
| GCAAAGGCTACAACACGTTC (antisense; DNA, all phosphorothioate, methylation of C not given here) [AS-II-861-20] | 89.98 |
| GCACATCTTCAGTTCATTTA (DNA, all phosphorothioate, methylation of C not given here) [AS-II-1362-20] | 70.22 |
| GCCACAGGATAAAAACACAA (antisense; DNA, all phosphorothioate, methylation of C not given here) [AS-II-2009-20] | 96.25 |
| GGGCACATCTTCAGTTCATT (DNA, all phosphorothioate, methylation of C not given here) [AS-II-1364-20] | 93.87 |
| TGCCTCCGACCCTTCCCATT (antisense dT*dG*dC*dC*dT*dC*dC*dG*dA*dC*dC*dC*dT*dT*dC*dC*dC*dA*dT*dT) [AS-II-14-20] | 91.24 |
| TTAGTGGTCAGGAGAATGTA (antisense; DNA, all phosphorothioate, methylation of C not given here) [AS-II-1819-20] | 90.68 |

tested on: MIA PaCa-2 pancreatic cell carcinoma; assay: Relative colony forming efficiency after antisense treatment (Table 13); format: cell-based, human; details: 0.2 μM antisense oligodeoxyribonucleotide phosphorothioate; MIA PaCa-2 cells; averages of 2-8 determinations

| Sequence | Reduced relative colony forming efficiency, expressed as % inhibition, MIA PaCa-2 [%] |
| --- | --- |
| GCAAAGAAAGCCAGAACATG (dG*dC*dA*dA*dA*dG*dA*dA*dA*dG*dC*dC*dA*dG*dA*dA*dC*dA*dT*dG; antisense) [AS-II-579-20] | 97.55 |
| GCAAAGGCTACAACACGTTC (antisense; DNA, all phosphorothioate, methylation of C not given here) [AS-II-861-20] | 97.3 |
| GCACATCTTCAGTTCATTTA (DNA, all phosphorothioate, methylation of C not given here) [AS-II-1362-20] | 44.14 |
| GCCACAGGATAAAAACACAA (antisense; DNA, all phosphorothioate, methylation of C not given here) [AS-II-2009-20] | 93.74 |
| GGGCACATCTTCAGTTCATT (DNA, all phosphorothioate, methylation of C not given here) [AS-II-1364-20] | 59.34 |
| TGCCTCCGACCCTTCCCATT (antisense dT*dG*dC*dC*dT*dC*dC*dG*dA*dC*dC*dC*dT*dT*dC*dC*dC*dA*dT*dT) [AS-II-14-20] | 47.93 |
| TTAGTGGTCAGGAGAATGTA (antisense; DNA, all phosphorothioate, methylation of C not given here) [AS-II-1819-20] | 20.02 |

tested on: PC-3 prostrate cell adenocarcinoma; assay: as above; format: cell-based, human; details: 0.2 μM antisense oligodeoxyribonucleotide phosphorothioate; PC-3 cells; averages of 2-8 determinations

| Sequence | Reduced relative colony forming efficiency, expressed as % inhibition, PC-3 [%] |
| --- | --- |
| GCAAAGAAAGCCAGAACATG (dG*dC*dA*dA*dA*dG*dA*dA*dA*dG*dC*dC*dA*dG*dA*dA*dC*dA*dT*dG; antisense) [AS-II-579-20] | 88.16 |
| GCAAAGGCTACAACACGTTC (antisense; DNA, all phosphorothioate, methylation of C not given here) [AS-II-861-20] | 87.33 |
| GCACATCTTCAGTTCATTTA (DNA, all phosphorothioate, methylation of C not given here) [AS-II-1362-20] | 77.38 |
| GCCACAGGATAAAAACACAA (antisense; DNA, all phosphorothioate, methylation of C not given here) [AS-II-2009-20] | 83.36 |
| GGGCACATCTTCAGTTCATT (DNA, all phosphorothioate, methylation of C not given here) [AS-II-1364-20] | 79.01 |
| TGCCTCCGACCCTTCCCATT (antisense dT*dG*dC*dC*dT*dC*dC*dG*dA*dC*dC*dC*dT*dT*dC*dC*dC*dA*dT*dT) [AS-II-14-20] | 92.76 |
| TTAGTGGTCAGGAGAATGTA (antisense; DNA, all phosphorothioate, methylation of C not given here) [AS-II-1819-20] | 85.46 |

tested on: HepG2 hepatocellular carcinoma; assay: Relative colony forming efficiency after antisense treatment (Table 13, FIG. 12); format: cell-based, human; details: 0.2 μM antisense oligodeoxyribonucleotide phosphorothioate; HepG2 cells; averages of 2-8 determinations

| Sequence | Reduced relative colony forming efficiency, expressed as % inhibition, HepG2 [%] |
| --- | --- |
| GCAAAGAAAGCCAGAACATG (dG*dC*dA*dA*dA*dG*dA*dA*dA*dG*dC*dC*dA*dG*dA*dA*dC*dA*dT*dG; antisense) [AS-II-579-20] | 94.28 |
| GCAAAGGCTACAACACGTTC (antisense; DNA, all phosphorothioate, methylation of C not given here) [AS-II-861-20] | 96.08 |
| GCACATCTTCAGTTCATTTA (DNA, all phosphorothioate, methylation of C not given here) [AS-II-1362-20] | 80.41 |
| GCCACAGGATAAAAACACAA (antisense; DNA, all phosphorothioate, methylation of C not given here) [AS-II-2009-20] | 96.99 |
| TGCCTCCGACCCTTCCCATT (antisense dT*dG*dC*dC*dT*dC*dC*dG*dA*dC*dC*dC*dT*dT*dC*dC*dC*dA*dT*dT) [AS-II-14-20] | 88.4 |
| TTAGTGGTCAGGAGAATGTA (antisense; DNA, all phosphorothioate, methylation of C not given here) [AS-II-1819-20] | 83.89 |
